Reference: the supplement of paper PMC11616607

How the values were obtained:
Test in all cases: drug sensitivity score (DSS) from 5-point dose-response viability curve (DSS (area-under-curve based score)); higher = more sensitive (stronger growth inhibition or killing); extreme values may be limits of the assay
Conditions in all cases: exposure time: 72 h; concentration range: 5 concentrations over 10,000-fold range
CAOV3 = test system: CAOV3
Procedure, shortened: (§1)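 Ovarian cancer and normal ovarian cell lines were tested in 384-well plates. Drugs were acoustically dispensed (Echo 550) in DMSO or water at five concentrations spanning a 10,000-fold range, then 1,500 cells per well were added and incubated 3 days at 37°C, 5% CO2. Viability was read by CellTiter-Glo luminescence on a PHERAstar FS. Drug sensitivity score was derived per cell line and drug with Breeze software; higher means more sensitive, zero means no response.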

COV318 = test system: COV318
Procedure, shortened: as §1

COV362 = test system: COV362
Procedure, shortened: as §1

HOSE1C = test system: HOSE1C
Procedure, shortened: as §1

HOSE2C = test system: HOSE2C
Procedure, shortened: as §1

JHOS2 = test system: JHOS2
Procedure, shortened: as §1

Kuramochi = test system: Kuramochi
Procedure, shortened: as §1

OV90 = test system: OV90
Procedure, shortened: as §1

OVCAR4 = test system: OVCAR4
Procedure, shortened: as §1

OVCAR5 = test system: OVCAR5
Procedure, shortened: as §1

OVCAR8 = test system: OVCAR8
Procedure, shortened: as §1

Ovsaho = test system: Ovsaho
Procedure, shortened: as §1

SMILES: C[C@]1(c2nc3c(C(N)=O)cccc3[nH]2)CCCN1 [Veliparib]
- drug sensitivity score (CAOV3): 0
- drug sensitivity score (COV318): 0
- drug sensitivity score (COV362): 0
- drug sensitivity score (HOSE1C): 0
- drug sensitivity score (HOSE2C): 0
- drug sensitivity score (JHOS2): 0
- drug sensitivity score (Kuramochi): 0
- drug sensitivity score (OV90): 0.7
- drug sensitivity score (OVCAR4): 0
- drug sensitivity score (OVCAR5): 1.3
- drug sensitivity score (OVCAR8): 0.2
- drug sensitivity score (Ovsaho): 0.4

SMILES: CCCS(=O)(=O)Nc1ccc(F)c(C(=O)c2c[nH]c3ncc(-c4ccc(Cl)cc4)cc23)c1F [Vemurafenib]
- drug sensitivity score (CAOV3): 0
- drug sensitivity score (COV318): 0
- drug sensitivity score (COV362): 0
- drug sensitivity score (HOSE1C): 0.4
- drug sensitivity score (HOSE2C): 1.1
- drug sensitivity score (JHOS2): 0
- drug sensitivity score (Kuramochi): 0.3
- drug sensitivity score (OV90): 0
- drug sensitivity score (OVCAR4): 0
- drug sensitivity score (OVCAR5): 0.5
- drug sensitivity score (OVCAR8): 0.5
- drug sensitivity score (Ovsaho): 0

SMILES: CC1(C)CCC(CN2CCN(c3ccc(C(=O)NS(=O)(=O)c4ccc(NCC5CCOCC5)c([N+](=O)[O-])c4)c(Oc4cnc5[nH]ccc5c4)c3)CC2)=C(c2ccc(Cl)cc2)C1 [Venetoclax]
- drug sensitivity score (CAOV3): 0
- drug sensitivity score (COV318): 0
- drug sensitivity score (COV362): 0
- drug sensitivity score (HOSE1C): 0
- drug sensitivity score (HOSE2C): 0
- drug sensitivity score (JHOS2): 2.8
- drug sensitivity score (Kuramochi): 0
- drug sensitivity score (OV90): 0
- drug sensitivity score (OVCAR4): 0
- drug sensitivity score (OVCAR5): 0
- drug sensitivity score (OVCAR8): 0
- drug sensitivity score (Ovsaho): 0

SMILES: O=C(/C=C\n1cnc(-c2cc(C(F)(F)F)cc(C(F)(F)F)c2)n1)NNc1ccccn1 [Verdinexor]
- drug sensitivity score (CAOV3): 9.2
- drug sensitivity score (COV318): 3.6
- drug sensitivity score (COV362): 4.7
- drug sensitivity score (HOSE1C): 22.2
- drug sensitivity score (HOSE2C): 6.1
- drug sensitivity score (JHOS2): 7
- drug sensitivity score (Kuramochi): 3.1
- drug sensitivity score (OV90): 5.1
- drug sensitivity score (OVCAR4): 5.4
- drug sensitivity score (OVCAR5): 7.5
- drug sensitivity score (OVCAR8): 10.9
- drug sensitivity score (Ovsaho): 7.6

SMILES: CCCCOc1nc(N)c2c(n1)N(Cc1cccc(CN3CCCC3)c1)CC(=O)N2 [Vesatolimod]
- drug sensitivity score (CAOV3): 0
- drug sensitivity score (COV318): 0
- drug sensitivity score (COV362): 0
- drug sensitivity score (HOSE1C): 0
- drug sensitivity score (HOSE2C): 0
- drug sensitivity score (JHOS2): 0
- drug sensitivity score (Kuramochi): 1
- drug sensitivity score (OV90): 0
- drug sensitivity score (OVCAR4): 0.4
- drug sensitivity score (OVCAR5): 0
- drug sensitivity score (OVCAR8): 0
- drug sensitivity score (Ovsaho): 0

SMILES: COc1cccc(-c2ccc(NC(=O)C3=C(C(=O)O)CCC3)c(F)c2)c1 [Vidofludimus]
- drug sensitivity score (CAOV3): 0
- drug sensitivity score (COV318): 0
- drug sensitivity score (COV362): 0
- drug sensitivity score (HOSE1C): 6
- drug sensitivity score (HOSE2C): 3.9
- drug sensitivity score (JHOS2): 0.1
- drug sensitivity score (Kuramochi): 0
- drug sensitivity score (OV90): 0
- drug sensitivity score (OVCAR4): 0
- drug sensitivity score (OVCAR5): 0
- drug sensitivity score (OVCAR8): 2.1
- drug sensitivity score (Ovsaho): 0.2

SMILES: CC[C@]1(O)C[C@@H]2CN(CCc3c([nH]c4ccccc34)[C@@](C(=O)OC)(c3cc4c(cc3OC)N(C)[C@H]3[C@@](O)(C(=O)OC)[C@H](OC(C)=O)[C@]5(CC)C=CCN6CC[C@]43[C@@H]65)C2)C1 [Vinblastine]
- drug sensitivity score (CAOV3): 22.4
- drug sensitivity score (COV318): 1.1
- drug sensitivity score (COV362): 2.3
- drug sensitivity score (HOSE1C): 13.8
- drug sensitivity score (HOSE2C): 12.3
- drug sensitivity score (JHOS2): 3.7
- drug sensitivity score (Kuramochi): 4.4
- drug sensitivity score (OV90): 18.5
- drug sensitivity score (OVCAR4): 9.1
- drug sensitivity score (OVCAR5): 3
- drug sensitivity score (OVCAR8): 8.6
- drug sensitivity score (Ovsaho): 5.3

SMILES: CC[C@]1(O)C[C@H]2CN(CCc3c([nH]c4ccccc34)[C@@](C(=O)OC)(c3cc4c(cc3OC)N(C=O)[C@H]3[C@@](O)(C(=O)OC)[C@H](OC(C)=O)[C@]5(CC)C=CCN6CC[C@]43[C@@H]65)C2)C1 [Vincristine]
- drug sensitivity score (CAOV3): 21.3
- drug sensitivity score (COV318): 1.9
- drug sensitivity score (COV362): 3.3
- drug sensitivity score (HOSE1C): 16.3
- drug sensitivity score (HOSE2C): 17.7
- drug sensitivity score (JHOS2): 2.7
- drug sensitivity score (Kuramochi): 3.1
- drug sensitivity score (OV90): 16.9
- drug sensitivity score (OVCAR4): 6.6
- drug sensitivity score (OVCAR5): 4.5
- drug sensitivity score (OVCAR8): 8.9
- drug sensitivity score (Ovsaho): 5.9

SMILES: CC[C@]12C=CCN3CC[C@@]4(c5cc([C@@]6(C(=O)OC)C[C@@H]7C[C@@H](C(C)(F)F)CN(Cc8c6[nH]c6ccccc86)C7)c(OC)cc5N(C)[C@H]4[C@@](O)(C(=O)OC)[C@@H]1OC(C)=O)[C@@H]32 [Vinflunine]
- drug sensitivity score (CAOV3): 4.3
- drug sensitivity score (COV318): 0.7
- drug sensitivity score (COV362): 1.3
- drug sensitivity score (HOSE1C): 3.6
- drug sensitivity score (HOSE2C): 3.6
- drug sensitivity score (JHOS2): 2.4
- drug sensitivity score (Kuramochi): 1.9
- drug sensitivity score (OV90): 3.3
- drug sensitivity score (OVCAR4): 2.1
- drug sensitivity score (OVCAR5): 3.4
- drug sensitivity score (OVCAR8): 4.1
- drug sensitivity score (Ovsaho): 1.8

SMILES: CCC1=C[C@@H]2CN(C1)Cc1c([nH]c3ccccc13)[C@@](C(=O)OC)(c1cc3c(cc1OC)N(C)[C@H]1[C@@](O)(C(=O)OC)[C@H](OC(C)=O)[C@]4(CC)C=CCN5CC[C@]31[C@@H]54)C2 [Vinorelbine]
- drug sensitivity score (CAOV3): 16.4
- drug sensitivity score (COV318): 8.1
- drug sensitivity score (COV362): 8.9
- drug sensitivity score (HOSE1C): 30.2
- drug sensitivity score (HOSE2C): 32.1
- drug sensitivity score (JHOS2): 9.7
- drug sensitivity score (Kuramochi): 12.6
- drug sensitivity score (OV90): 26.5
- drug sensitivity score (OVCAR4): 12.7
- drug sensitivity score (OVCAR5): 19.5
- drug sensitivity score (OVCAR8): 27.6
- drug sensitivity score (Ovsaho): 19.9

SMILES: CS(=O)(=O)c1ccc(C(=O)Nc2ccc(Cl)c(-c3ccccn3)c2)c(Cl)c1 [Vismodegib]
- drug sensitivity score (CAOV3): 0
- drug sensitivity score (COV318): 0
- drug sensitivity score (COV362): 0
- drug sensitivity score (HOSE1C): 3.8
- drug sensitivity score (HOSE2C): 0
- drug sensitivity score (JHOS2): 0
- drug sensitivity score (Kuramochi): 0.1
- drug sensitivity score (OV90): 0.1
- drug sensitivity score (OVCAR4): 0
- drug sensitivity score (OVCAR5): 0.1
- drug sensitivity score (OVCAR8): 0
- drug sensitivity score (Ovsaho): 0

SMILES: CNC(=O)c1cccc(-c2ccc3c(N4CCOC[C@@H]4C)nc(N4CCOC[C@@H]4C)nc3n2)c1 [Vistusertib]
- drug sensitivity score (CAOV3): 10.2
- drug sensitivity score (COV318): 10
- drug sensitivity score (COV362): 2.8
- drug sensitivity score (HOSE1C): 14.5
- drug sensitivity score (HOSE2C): 10.3
- drug sensitivity score (JHOS2): 7.7
- drug sensitivity score (Kuramochi): 11.5
- drug sensitivity score (OV90): 15.1
- drug sensitivity score (OVCAR4): 11.5
- drug sensitivity score (OVCAR5): 13.3
- drug sensitivity score (OVCAR8): 10.2
- drug sensitivity score (Ovsaho): 15.4

SMILES: CC[C@@H]1C(=O)N(C)c2cnc(Nc3ccc(C(=O)N[C@H]4CC[C@H](N5CCN(CC6CC6)CC5)CC4)cc3OC)nc2N1C(C)C [Volasertib]
- drug sensitivity score (CAOV3): 13.1
- drug sensitivity score (COV318): 4.1
- drug sensitivity score (COV362): 3.2
- drug sensitivity score (HOSE1C): 9.7
- drug sensitivity score (HOSE2C): 6.3
- drug sensitivity score (JHOS2): 7.1
- drug sensitivity score (Kuramochi): 7.3
- drug sensitivity score (OV90): 11.5
- drug sensitivity score (OVCAR4): 4.4
- drug sensitivity score (OVCAR5): 12.2
- drug sensitivity score (OVCAR8): 15.5
- drug sensitivity score (Ovsaho): 10.4

SMILES: O=C(CCCCCCC(=O)Nc1ccccc1)NO [Vorinostat]
- drug sensitivity score (CAOV3): 8.6
- drug sensitivity score (COV318): 4.3
- drug sensitivity score (COV362): 3.2
- drug sensitivity score (HOSE1C): 15.9
- drug sensitivity score (HOSE2C): 10.7
- drug sensitivity score (JHOS2): 5.3
- drug sensitivity score (Kuramochi): 4.7
- drug sensitivity score (OV90): 8
- drug sensitivity score (OVCAR4): 4.7
- drug sensitivity score (OVCAR5): 10.8
- drug sensitivity score (OVCAR8): 9.7
- drug sensitivity score (Ovsaho): 2.7

SMILES: Oc1nc(-c2ccc(C(F)(F)F)cc2)nc2c1CSCC2 [XAV-939]
- drug sensitivity score (CAOV3): 0
- drug sensitivity score (COV318): 0
- drug sensitivity score (COV362): 0
- drug sensitivity score (HOSE1C): 0
- drug sensitivity score (HOSE2C): 0
- drug sensitivity score (JHOS2): 0.1
- drug sensitivity score (Kuramochi): 1.5
- drug sensitivity score (OV90): 0
- drug sensitivity score (OVCAR4): 3.6
- drug sensitivity score (OVCAR5): 0
- drug sensitivity score (OVCAR8): 0
- drug sensitivity score (Ovsaho): 2.3

SMILES: FC(F)c1nc2ccccc2n1-c1nc(N2CCOCC2)nc(N2CCOCC2)n1 [ZSTK474]
- drug sensitivity score (CAOV3): 8
- drug sensitivity score (COV318): 7.8
- drug sensitivity score (COV362): 4.4
- drug sensitivity score (HOSE1C): 8.8
- drug sensitivity score (HOSE2C): 10.6
- drug sensitivity score (JHOS2): 4
- drug sensitivity score (Kuramochi): 17.4
- drug sensitivity score (OV90): 5.7
- drug sensitivity score (OVCAR4): 7.7
- drug sensitivity score (OVCAR5): 11
- drug sensitivity score (OVCAR8): 8.9
- drug sensitivity score (Ovsaho): 10.6
